Laboratory results: the supplement of paper PMC12317010

Assay: collision cross section in nitrogen (drift tube, single-field); higher = larger gas-phase ion size
[1] = ion source: ESI, ion mode: Positive, ion type: [M]+ (permanent cation)
[2] = ion type: [M+H], ion source: APCI, ion mode: Positive
[3] = ion type: [M+H], ion source: ESI, ion mode: Positive
[4] = ion type: [M+Na], ion source: ESI, ion mode: Positive
[5] = ion type: [M-H], ion source: ESI, ion mode: Negative
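Further: chemical standards at 10 µM analysed by drift tube IMS-QTOF MS in about 3.95 torr nitrogen, mean of duplicate injections differing ≤1%, mass error below 10 ppm.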

| Compound | collision cross section in nitrogen [1] | collision cross section in nitrogen [2] | collision cross section in nitrogen [3] | collision cross section in nitrogen [4] | collision cross section in nitrogen [5] | collision cross section in nitrogen (ion source: APCI, ion mode: Positive, ion type: [M]+ (permanent cation)) |
| --- | --- | --- | --- | --- | --- | --- |
| C=C(C)C(=O)NCCC[N+](C)(C)C | 143.3 Å² | – | – | – | – | – |
| CC(C)(C)c1csc(-c2cc3cc(OCc4ccccc4CC(=O)O)ccc3o2)n1 | – | 211.8 Å² | 211.5 Å² | 203.4 Å² | – | – |
| CC(C)(c1ccccc1)c1cc(-n2nc3ccccc3n2)c(O)c(C(C)(C)c2ccccc2)c1 | – | 218 Å² | 218 Å² | 223.4 Å² | 222.1 Å² | – |
| CC(C)(O)c1ccc(CNC(=O)c2cccnc2Oc2ccc3nonc3c2)cc1 | – | 196.9 Å² | – | 191.5 Å² | 201 Å² | – |
| CC(C)(O)c1ccc(CNC(=O)c2cccnc2Oc2ccc(F)cc2)cc1 | – | 201.1 Å² | – | 190.4 Å² | 196.7 Å² | – |
| CC(C)c1nnc2ccc(-c3ocnc3-c3cc(F)ccc3F)cn12 | – | 177.3 Å² | 177 Å² | 196.3 Å² | 178.7 Å² | – |
| CC(Cc1ccc(OCC(=O)O)cc1)NCC(O)c1csc(C(F)(F)F)n1 (stereo not drawn) | – | 181.1 Å² | 181.4 Å² | 181.2 Å² | 184.7 Å² | – |
| CCc1nn(C2CCCCC2)c2cc([C@]3(C#N)CC[C@@H](C(=O)O)CC3)ccc12 | – | 206 Å² | 205.4 Å² | – | 213.8 Å² | – |
| CCCCc1nc2cccnc2n1Cc1ccc(-c2ccccc2-c2nnn[nH]2)cc1 | – | 197 Å² | 196.8 Å² | 205.8 Å² | 204.3 Å² | – |
| CCN(C(=O)c1cc(C)cc(OC[C@H](C)Nc2ccncc2)c1)C(C)C | – | 186.4 Å² | 186.4 Å² | 194.8 Å² | – | – |
| CCOc1ccc2[nH]cc(C(=O)NCc3ccccc3)c(=O)c2n1 | – | 184.3 Å² | 183.9 Å² | 187 Å² | 183.9 Å² | – |
| CC[C@H]1CC[C@H](NCc2cc3c(cc2OC)[C@H]2C[C@H]2C(=O)N3C)[C@H](c2ccccc2)N1 | – | 208.4 Å² | 208.2 Å² | 214.4 Å² | – | – |
| CN(C[C@@H](CC[N+]12CCC(C3CCCCC3)(CC1)CC2)c1ccc(Cl)c(Cl)c1)C(=O)c1cc(C(F)(F)F)cc(C(F)(F)F)c1 | 262.3 Å² | – | – | – | – | 260.7 Å² |
| Cc1ccccc1N=Nc1ccc(NC(=O)c2ccnn2C)c(C)c1 | – | 189.6 Å² | 189.1 Å² | 200.2 Å² | 190.8 Å² | – |
| CNC(=O)[C@H]1O[C@@H](n2cnc3c(NCc4cc(Cl)ccc4OCc4cc(C)no4)ncnc32)[C@H](O)[C@@H]1N | – | 216.1 Å² | 216.2 Å² | 223.6 Å² | – | – |
| COc1ccc(OC(F)(F)F)cc1CN[C@H]1CCCN[C@H]1c1ccccc1 | – | 182.7 Å² | 183.3 Å² | 190.7 Å² | – | – |
| Cc1nc(C)nc(N2C[C@@H](C)N(c3ccnc([C@@H](C)O)n3)[C@@H](C)C2)n1 | – | 191.2 Å² | 190.4 Å² | 183.4 Å² | 192.5 Å² | – |
| Cc1nccn1-c1ccc(Sc2cccc(C3(C(N)=O)CCOCC3)c2)cc1 | – | 196.7 Å² | 196.8 Å² | 188.1 Å² | – | – |
| Clc1cc(Cl)c2c(c1)N=C1CCCCCN1C2 | – | 158.5 Å² | 159.3 Å² | – | – | – |
| OC(Cc1ccccc1Cl)(Cn1cncn1)C1(Cl)CC1 (stereo not drawn) | – | 167.3 Å² | 167 Å² | 184.1 Å² | – | – |
